For the assay, the system named is test plant species. The experiment in a line: Post-emergent herbicidal activity test (greenhouse, foliar spray, visual growth reduction). In kind it is in vivo. The conditions noted are these: post-emergence, 336 h, 140 g ai/ha, 14 days after application. The method, then: Post-emergent Test: Seeds or nutlets of the desired test plant species were planted in Sun Gro Metro-Mix® 360 planting mixture, which typically has a pH of 6.0 to 6.8 and an organic matter content of about 30 percent, in plastic pots with a surface area of 64 square centimeters. In some aspects, to ensure good germination and healthy plants, a fungicide treatment and/or other chemical or physical treatment was applied. The plants were grown for 7-21 d in a greenhouse with an approximate 15 h photoperiod which was maintained at 23-29° C. during the day and 22-28° C. during the night. Nutrients and water were added on a regular basis and supplemental lighting was provided with overhead metal halide 1000-Watt lamps as necessary. Plants were used for testing when they reached the first or second true leaf stage. A weighed amount, determined by the highest rate to be tested, of each test compound was placed in a 25 mL glass vial and was dissolved in 4 mL of a 97:3 v/v mixture of acetone and DMSO to obtain concentrated stock solutions. […] The concentrated stock solutions obtained were diluted with 20 mL of an aqueous mixture containing acetone, water, isopropyl alcohol, DMSO, […] crop oil concentrate, and X-77 surfactant in a 48.5:39:10:1.5:1.0:0.02 v/v ratio to obtain spray solutions containing the application rate. Compound requirements are based upon a 12 mL application volume at a rate of 187 liters per hectare (L/ha). Formulated compounds were applied to the plant material with an overhead Mandel track sprayer equipped with […] nozzles calibrated to deliver 187 L/ha over an application area of 0.64 square meters at a spray height of 18 inches (43 cm) above the average plant canopy height. Control plants were sprayed in the same manner with the solvent blank. The treated plants and control plants were placed in a greenhouse as described above and watered by subirrigation to prevent wash-off of the test compounds. After 14 d, the condition of the test plants as compared with that of the nontreated and control plants was determined visually and scored on a scale of 0 to 100 percent where 0 corresponds to no injury and 100 corresponds to complete control. In the reporting of the results, Table A: Percent Growth Reduction Conversion Table was used.

Setting [1] is: ALOMY: blackgrass (Alopecurus myosuroides), read-out: Visual Growth Reduction (%) 14 Days After Application, ALOMY.
Where [2] appears, read: AMARE: redroot pigweed (Amaranthus retroflexus), read-out: Visual Growth Reduction (%) 14 Days After Application, AMARE.
Setting [3] is: AVEFA: wild oat (Avena fatua), read-out: Visual Growth Reduction (%) 14 Days After Application, AVEFA.
The mark [4] stands for this setting: CHEAL: lambsquarters (Chenopodium album), read-out: Visual Growth Reduction (%) 14 Days After Application, CHEAL.
The mark [5] stands for this setting: CIRAR: canada thistle (Cirsium arvense), read-out: Visual Growth Reduction (%) 14 Days After Application, CIRAR.
Setting [6] is: CYPES: yellow nutsedge (Cyperus esculentus), read-out: Visual Growth Reduction (%) 14 Days After Application, CYPES.
[7] abbreviates: DIGSA: crabgrass (Digitaria sanguinalis), read-out: Visual Growth Reduction (%) 14 Days After Application, DIGSA.
The mark [8] stands for this setting: ECHCG: barnyardgrass (Echinochloa crus-galli), read-out: Visual Growth Reduction (%) 14 Days After Application, ECHCG.
Setting [9] is: IPOHE: ivy-leaf morning glory (Ipomoea hederacea), read-out: Visual Growth Reduction (%) 14 Days After Application, IPOHE.
Setting [10] is: ORYSA: rice (Oryza sativa), read-out: Visual Growth Reduction (%) 14 Days After Application, ORYSA.
Setting [11] is: SORVU: grain sorghum (Sorghum vulgare), read-out: Visual Growth Reduction (%) 14 Days After Application, SORVU.
Setting [12] is: STEME: common chickweed (Stellaria media), read-out: Visual Growth Reduction (%) 14 Days After Application, STEME.
Setting [13] is: SETFA: giant foxtail (Setaria faberi), read-out: Visual Growth Reduction (%) 14 Days After Application, SETFA.
Setting [14] is: TRZAS: wheat, spring (Triticum aestivum), read-out: Visual Growth Reduction (%) 14 Days After Application, TRZAS.

The results in this text go back to US20230017045A1, “PYRIDINE AND PYRIMIDINE CARBOXYLATE HERBICIDES AND METHODS OF USE THEREOF” (Dow AgroSciences LLC, priority 2017, published 2023).

Read-outs that look alike come from different tables or passages of the source.

Turning to `COC(=O)c1nc(-c2ccc3cc[nH]c3c2F)ccc1Cl` [F69, Methyl 3-chloro-6-(7-fluoro-1H-indol-6-yl)picolinate], the pest or weed control at 140 g/ha lay in the range of 0 to 29% under setting [1]; 0 to 29% under setting [2]; 0 to 29% under setting [3]; 0 to 29% under setting [4]; 0 to 29% under setting [5]; 0 to 29% under setting [6]. The pest or weed control at 140 g/ha runs as follows: under setting [7], 0 to 29%; under setting [8], 0 to 29%; under setting [9], 0 to 29%; under setting [10], 0 to 29%; under setting [11], 0 to 29%; under setting [12], 0 to 29%.
For the compound `O=C(O)c1nc(-c2ccc(Cl)c(F)c2F)ccc1Cl` [F70, 3-Chloro-6-(4-chloro-2,3-difluorophenyl) picolinic acid], the pest or weed control at 140 g/ha runs as follows: under setting [1], 0 to 29%; under setting [2], 95 to 100%; under setting [3], 0 to 29%; under setting [4], 95 to 100%; under setting [5], 75 to 84%; under setting [6], 75 to 84%. Further, the pest or weed control at 140 g/ha lay within 60 to 74% under setting [7]; 45 to 59% under setting [8]; 85 to 94% under setting [9]; 0 to 29% under setting [10]; 30 to 44% under setting [13]; 85 to 94% under setting [11]. In addition, the pest or weed control at 140 g/ha under setting [12] lay within 60 to 74%.
For the compound `COC(=O)c1nc(-c2ccc(Cl)c(F)c2F)ccc1Cl` [F71, Methyl 3-chloro-6-(4-chloro-2,3-difluorophenyl) picolinate], the pest or weed control at 140 g/ha lay in the range of 0 to 29% under setting [1]; 95 to 100% under setting [2]; 0 to 29% under setting [3]; 95 to 100% under setting [4]; 75 to 84% under setting [5]; 60 to 74% under setting [6]. The pest or weed control at 140 g/ha is, setting by setting: under setting [7], 75 to 84%; under setting [8], 0 to 29%; under setting [9], 95 to 100%; under setting [10], 30 to 44%; under setting [11], 75 to 84%; under setting [12], 45 to 59%.
As to `COC(=O)c1nc(-c2ccc(Cl)cc2)c(N)cc1Cl` [F72, methyl 5-amino-3-chloro-6-(4-chlorophenyl)picolinate], the pest or weed control at 140 g/ha by setting is: under setting [1], 0 to 29%; under setting [2], 0 to 29%; under setting [3], 0 to 29%; under setting [4], 0 to 29%; under setting [5], 0 to 29%; under setting [6], 0 to 29%. Moreover, the pest or weed control at 140 g/ha lay in the range of 0 to 29% under setting [7]; 0 to 29% under setting [8]; 0 to 29% under setting [10]; 0 to 29% under setting [13]; 0 to 29% under setting [11]; 0 to 29% under setting [12]. The pest or weed control at 140 g/ha under setting [14] lay in the range of 0 to 29%.
For the compound `COc1c(Cl)ccc(-c2nc(C(=O)O)c(Cl)c(Cl)c2F)c1F` [F73, 3,4-Dichloro-6-(4-chloro-2-fluoro-3-methoxyphenyl)-5-fluoropicolinic acid], the pest or weed control at 140 g/ha is 0 to 29% under setting [1]; 0 to 29% under setting [2]; 0 to 29% under setting [3]; 95 to 100% under setting [4]; 0 to 29% under setting [5]; 0 to 29% under setting [6]. In addition, the pest or weed control at 140 g/ha under setting [7] is 0 to 29%; the pest or weed control at 140 g/ha under setting [8] was 0 to 29%; the pest or weed control at 140 g/ha under setting [10] was 0 to 29%; the pest or weed control at 140 g/ha under setting [13] is 0 to 29%; the pest or weed control at 140 g/ha under setting [11] was 0 to 29%; the pest or weed control at 140 g/ha under setting [12] lay in the range of 0 to 29%. Besides, under setting [14], the pest or weed control at 140 g/ha lay within 0 to 29%.
Regarding `COC(=O)c1nc(-c2ccc(Cl)c(OC)c2F)c(F)c(Cl)c1Cl` [F74, Methyl 3,4-dichloro-6-(4-chloro-2-fluoro-3-methoxyphenyl)-5-fluoropicolinate], the pest or weed control at 140 g/ha reads like this: under setting [1], 0 to 29%; under setting [2], 0 to 29%; under setting [3], 0 to 29%; under setting [4], 30 to 44%; under setting [5], 0 to 29%; under setting [6], 0 to 29%. For the same compound, the pest or weed control at 140 g/ha lay in the range of 0 to 29% under setting [7]; 0 to 29% under setting [8]; 0 to 29% under setting [9]; 0 to 29% under setting [10]; 0 to 29% under setting [13]; 0 to 29% under setting [11]. Further, the pest or weed control at 140 g/ha was in the range of 0 to 29% under setting [12] and 0 to 29% under setting [14].
For the compound `COc1c(Cl)ccc(-c2cc(Cl)c(Cl)c(C(=O)O)n2)c1F` [F75, 3,4-Dichloro-6-(4-chloro-2-fluoro-3-methoxyphenyl) picolinic acid], the pest or weed control at 140 g/ha lay in the range of 0 to 29% under setting [1]; 85 to 94% under setting [2]; 0 to 29% under setting [3]; 95 to 100% under setting [4]; 30 to 44% under setting [5]; 0 to 29% under setting [6]. The pest or weed control at 140 g/ha under setting [7] was 0 to 29%; the pest or weed control at 140 g/ha under setting [8] was in the range of 95 to 100%; the pest or weed control at 140 g/ha under setting [9] is 30 to 44%; the pest or weed control at 140 g/ha under setting [10] fell in the range of 0 to 29%; the pest or weed control at 140 g/ha under setting [13] lay in the range of 45 to 59%; the pest or weed control at 140 g/ha under setting [11] is 0 to 29%. For the same compound, the pest or weed control at 140 g/ha lay in the range of 30 to 44% under setting [12] and 0 to 29% under setting [14].
In the case of `COC(=O)c1nc(-c2ccc(Cl)c(OC)c2F)cc(Cl)c1Cl` [F76, methyl 3,4-dichloro-6-(4-chloro-2-fluoro-3-methoxyphenyl)picolinate], the pest or weed control at 140 g/ha was in the range of 0 to 29% under setting [1]; 30 to 44% under setting [2]; 0 to 29% under setting [3]; 45 to 59% under setting [4]; 0 to 29% under setting [5]; 30 to 44% under setting [6]. The pest or weed control at 140 g/ha by setting is: under setting [7], 0 to 29%; under setting [8], 0 to 29%; under setting [9], 30 to 44%; under setting [10], 0 to 29%; under setting [13], 0 to 29%; under setting [11], 0 to 29%. Also, the pest or weed control at 140 g/ha is 0 to 29% under setting [12] and 0 to 29% under setting [14].
